According to PubChem BioAssay AID220 (DTP/NCI, 2004):
Results filed as inconclusive are left out.

Tested on: CD8F1 mice, subcutaneous mammary adenocarcinoma, T/C%
Experiment: NCI In Vivo Anticancer Drug Screen. Data for tumor model Mammary Adenocarcinoma CD8F1 (subcutaneous) in CD8F1
Settings: higher = larger tumour
Protocol: The antitumor activity of compounds was measured in mice bearing transplantable tumors. Survival or tumor size were measured and the results are expressed as the measurement made in the treated group (T) divided by the measurement made in the vehicle treated control group (C). The tumor model used in this assay is Mammary Adenocarcinoma CD8F1 (subcutaneous) in CD8F1

[1] = endpoint: median tumor weight (est.), dose: 25.0 mg/kg/injection, schedule: Q07DX005 (ip), vehicle: Klucel (hydroxypropylcellulose) (HPC)
[2] = endpoint: median tumor weight (est.), dose: 50.0 mg/kg/injection, schedule: Q07DX005 (ip), vehicle: Klucel (hydroxypropylcellulose) (HPC)
[3] = endpoint: median tumor weight (est.), dose: 100.0 mg/kg/injection, schedule: Q07DX005 (ip), vehicle: Klucel (hydroxypropylcellulose) (HPC)
[4] = endpoint: median tumor weight change, dose: 62.5 mg/kg/injection, schedule: Q01DX001 (ip), vehicle: saline
[5] = endpoint: median tumor weight change, dose: 125.0 mg/kg/injection, schedule: Q01DX001 (ip), vehicle: saline
[6] = endpoint: median tumor weight change, dose: 250.0 mg/kg/injection, schedule: Q01DX001 (ip), vehicle: saline
[7] = endpoint: median tumor weight change, dose: 500.0 mg/kg/injection, schedule: Q01DX001 (ip), vehicle: saline
[8] = endpoint: median tumor weight (est.), dose: 25.0 mg/kg/injection, schedule: Q07DX005 (ip), vehicle: suspension in saline
[9] = endpoint: median tumor weight (est.), dose: 50.0 mg/kg/injection, schedule: Q07DX005 (ip), vehicle: suspension in saline
[10] = endpoint: median tumor weight (est.), dose: 100.0 mg/kg/injection, schedule: Q07DX005 (ip), vehicle: suspension in saline
[11] = endpoint: median tumor weight (est.), dose: 200.0 mg/kg/injection, schedule: Q07DX005 (ip), vehicle: suspension in saline

## CNC(=O)OCc1c(COC(=O)NC)c(C)n(-c2ccc(OC)cc2)c1C
endpoint: median tumor weight (est.), dose: 6.25 mg/kg/injection, schedule: Q07DX005 (ip), vehicle: Klucel (hydroxypropylcellulose) (HPC)
  T/C: 113 % of control
endpoint: median tumor weight (est.), dose: 12.5 mg/kg/injection, schedule: Q07DX005 (ip), vehicle: Klucel (hydroxypropylcellulose) (HPC)
  T/C: 90 % of control
[1]
  T/C: 152 % of control
[2]
  T/C: 23 % of control
[3]
  T/C: 24 % of control
endpoint: median tumor weight change, dose: 50.0 mg/kg/injection, schedule: Q01DX001 (ip), vehicle: Klucel (hydroxypropylcellulose) (HPC)
  T/C: 109 % of control
endpoint: median tumor weight change, dose: 200.0 mg/kg/injection, schedule: Q01DX001 (ip), vehicle: Klucel (hydroxypropylcellulose) (HPC)
  T/C: 79 % of control
endpoint: median tumor weight change, dose: 400.0 mg/kg/injection, schedule: Q01DX001 (ip), vehicle: Klucel (hydroxypropylcellulose) (HPC)
  T/C: 52 % of control

## COC(=O)C12OCC34C(CC5C(C)=CC(=O)C(O)C5(C)C3C(O)C1O)OC(=O)C(OC(=O)CC(C)C)C24 (stereo not drawn)
endpoint: median tumor weight (est.), dose: 0.13 mg/kg/injection, schedule: Q07DX005 (ip), vehicle: saline + alcohol
  T/C: 107 % of control
endpoint: median tumor weight (est.), dose: 0.5 mg/kg/injection, schedule: Q07DX005 (ip), vehicle: saline + alcohol
  T/C: 82 % of control
endpoint: median tumor weight (est.), dose: 1.0 mg/kg/injection, schedule: Q07DX005 (ip), vehicle: saline + alcohol
  T/C: 64 % of control
endpoint: median tumor weight (est.), dose: 2.0 mg/kg/injection, schedule: Q07DX005 (ip), vehicle: saline + alcohol
  T/C: 47 % of control

## C=C1C(=O)OC2CC(C)C3C4OC4C(O)C3(C)C(O)C12 (stereo not drawn)
[4]
  T/C: 119 % of control
[5]
  T/C: 80 % of control
[6]
  T/C: 74 % of control
[7]
  T/C: 88 % of control

## C=C/C(C)=C/[C@H](C)C(=O)C[C@H](O)CC1CC(=O)NC(=O)C1
endpoint: median tumor weight (est.), dose: 6.25 mg/kg/injection, schedule: Q07DX005 (ip), vehicle: saline with Tween-80
  T/C: 41 % of control
endpoint: median tumor weight (est.), dose: 12.5 mg/kg/injection, schedule: Q07DX005 (ip), vehicle: saline with Tween-80
  T/C: 62 % of control
endpoint: median tumor weight (est.), dose: 100.0 mg/kg/injection, schedule: Q07DX005 (ip), vehicle: saline with Tween-80
  T/C: 157 % of control
endpoint: median tumor weight (est.), dose: 200.0 mg/kg/injection, schedule: Q07DX005 (ip), vehicle: saline with Tween-80
  T/C: 50 % of control

## O=C1c2cccc(NCCCNCCO)c2C(=O)c2cccc(NCCCNCCO)c21
endpoint: median tumor weight change, dose: 6.25 mg/kg/injection, schedule: Q01DX001 (ip), vehicle: acid diluted with saline
  T/C: 36 % of control
endpoint: median tumor weight change, dose: 12.5 mg/kg/injection, schedule: Q01DX001 (ip), vehicle: acid diluted with saline
  T/C: 47 % of control
endpoint: median tumor weight change, dose: 25.0 mg/kg/injection, schedule: Q01DX001 (ip), vehicle: acid diluted with saline
  T/C: 29 % of control
endpoint: median tumor weight change, dose: 50.0 mg/kg/injection, schedule: Q01DX001 (ip), vehicle: acid diluted with saline
  T/C: 23 % of control
endpoint: median tumor weight change, dose: 100.0 mg/kg/injection, schedule: Q01DX001 (ip), vehicle: acid diluted with saline
  T/C: 54 % of control

## CO[C@@]12[C@@H]3N[C@@H]3CN1C1=C(C(=O)C(NCC3CCCO3)=C(C)C1=O)[C@@H]2COC(N)=O (stereo partly drawn)
endpoint: median tumor weight change, dose: 6.25 mg/kg/injection, schedule: Q01DX001 (ip), vehicle: distilled water + Tween-80
  T/C: 44 % of control

## O=C1OC(=O)[C@H]2[C@@H]1[C@H]1C=C[C@@H]2OC1=O
[5]
  T/C: 154 % of control
[6]
  T/C: 98 % of control
[7]
  T/C: 91 % of control
endpoint: median tumor weight change, dose: 1000.0 mg/kg/injection, schedule: Q01DX001 (ip), vehicle: saline
  T/C: 95 % of control
endpoint: median tumor weight change, dose: 2000.0 mg/kg/injection, schedule: Q01DX001 (ip), vehicle: saline
  T/C: 40 % of control

## C[C@@](O)(/C=C/[C@H]1CC=CC(=O)O1)[C@@H](C[C@@H](O)\C=C/C=C\C=C\CO)OP(=O)(O)O
endpoint: median tumor weight change, dose: 15.62 mg/kg/injection, schedule: Q01DX001 (ip), vehicle: other
  T/C: 99 % of control
endpoint: median tumor weight change, dose: 31.25 mg/kg/injection, schedule: Q01DX001 (ip), vehicle: other
  T/C: 83 % of control
endpoint: median tumor weight change, dose: 62.5 mg/kg/injection, schedule: Q01DX001 (ip), vehicle: other
  T/C: 42 % of control

## OC1OC2COC(c3ccccc3)OC2C(O)C1O (stereo not drawn)
endpoint: median tumor weight change, dose: 50.0 mg/kg/injection, schedule: Q01DX001 (ip), vehicle: water
  T/C: 105 % of control
endpoint: median tumor weight change, dose: 100.0 mg/kg/injection, schedule: Q01DX001 (ip), vehicle: water
  T/C: 80 % of control
endpoint: median tumor weight change, dose: 200.0 mg/kg/injection, schedule: Q01DX001 (ip), vehicle: water
  T/C: 101 % of control
endpoint: median tumor weight change, dose: 400.0 mg/kg/injection, schedule: Q01DX001 (ip), vehicle: water
  T/C: 59 % of control
endpoint: median tumor weight change, dose: 800.0 mg/kg/injection, schedule: Q01DX001 (ip), vehicle: water
  T/C: 62 % of control
endpoint: median tumor weight change, dose: 1600.0 mg/kg/injection, schedule: Q01DX001 (ip), vehicle: water
  T/C: 90 % of control

## Nc1nc2nc[nH]c2c(=O)[nH]1
[8]
  T/C: 73 % of control
[9]
  T/C: 73 % of control
[10]
  T/C: 69 % of control
[11]
  T/C: 73 % of control

## BrCCC1(CCBr)CCCCC1
endpoint: median tumor weight change, dose: 125.0 mg/kg/injection, schedule: Q01DX001 (ip), vehicle: other
  T/C: 80 % of control
endpoint: median tumor weight change, dose: 250.0 mg/kg/injection, schedule: Q01DX001 (ip), vehicle: other
  T/C: 79 % of control
endpoint: median tumor weight change, dose: 500.0 mg/kg/injection, schedule: Q01DX001 (ip), vehicle: other
  T/C: 83 % of control
endpoint: median tumor weight change, dose: 1000.0 mg/kg/injection, schedule: Q01DX001 (ip), vehicle: other
  T/C: 109 % of control
endpoint: median tumor weight change, dose: 2000.0 mg/kg/injection, schedule: Q01DX001 (ip), vehicle: other
  T/C: 119 % of control

## N#CCCN(C(=S)Nc1cccc(C(F)(F)F)c1)C1CCCCC1
[1]
  T/C: 66 % of control
[2]
  T/C: 116 % of control
[3]
  T/C: 75 % of control
endpoint: median tumor weight (est.), dose: 200.0 mg/kg/injection, schedule: Q07DX005 (ip), vehicle: Klucel (hydroxypropylcellulose) (HPC)
  T/C: 60 % of control
endpoint: median tumor weight (est.), dose: 400.0 mg/kg/injection, schedule: Q07DX005 (ip), vehicle: Klucel (hydroxypropylcellulose) (HPC)
  T/C: 38 % of control
endpoint: median tumor weight (est.), dose: 800.0 mg/kg/injection, schedule: Q07DX005 (ip), vehicle: Klucel (hydroxypropylcellulose) (HPC)
  T/C: 60 % of control

## C1CNCOC1
endpoint: median tumor weight change, dose: 50.0 mg/kg/injection, schedule: Q01DX001 (ip), vehicle: saline
  T/C: 74 % of control
[4]
  T/C: 48 % of control
endpoint: median tumor weight change, dose: 100.0 mg/kg/injection, schedule: Q01DX001 (ip), vehicle: saline
  T/C: 82 % of control
endpoint: median tumor weight change, dose: 200.0 mg/kg/injection, schedule: Q01DX001 (ip), vehicle: saline
  T/C: 90 % of control
[6]
  T/C: 96 % of control

## C=COC(=O)C(Cc1ccccc1)NC(=O)OCc1ccccc1 (stereo not drawn)
endpoint: median tumor weight change, dose: 62.5 mg/kg/injection, schedule: Q01DX001 (ip), vehicle: saline with Tween-80
  T/C: 103 % of control
endpoint: median tumor weight change, dose: 125.0 mg/kg/injection, schedule: Q01DX001 (ip), vehicle: saline with Tween-80
  T/C: 58 % of control
endpoint: median tumor weight change, dose: 250.0 mg/kg/injection, schedule: Q01DX001 (ip), vehicle: saline with Tween-80
  T/C: 46 % of control
endpoint: median tumor weight change, dose: 500.0 mg/kg/injection, schedule: Q01DX001 (ip), vehicle: saline with Tween-80
  T/C: 33 % of control
endpoint: median tumor weight change, dose: 1000.0 mg/kg/injection, schedule: Q01DX001 (ip), vehicle: saline with Tween-80
  T/C: 75 % of control

## Cc1cc(O)c(N=Nc2ccc(C(=O)O)cc2)cc1C
endpoint: mean tumor weight (est.), dose: 200.0 mg/kg/injection, schedule: Q07DX001 (ip), vehicle: carboxymethylcellulose (CMC)
  T/C: 82 % of control
endpoint: mean tumor weight (est.), dose: 400.0 mg/kg/injection, schedule: Q07DX001 (ip), vehicle: carboxymethylcellulose (CMC)
  T/C: 74 % of control
endpoint: mean tumor weight, dose: 100.0 mg/kg/injection, schedule: Q07DX007 (ip), vehicle: saline
  T/C: 106 % of control
endpoint: mean tumor weight, dose: 200.0 mg/kg/injection, schedule: Q07DX007 (ip), vehicle: saline
  T/C: 20 % of control
endpoint: mean tumor weight, dose: 400.0 mg/kg/injection, schedule: Q07DX007 (ip), vehicle: saline
  T/C: 35 % of control
[8]
  T/C: 98 % of control
[9]
  T/C: 90 % of control
[10]
  T/C: 98 % of control
[11]
  T/C: 108 % of control
endpoint: median tumor weight (est.), dose: 400.0 mg/kg/injection, schedule: Q07DX005 (ip), vehicle: suspension in saline
  T/C: 98 % of control

## Cc1cn(C2CC(F)C(CO)O2)c(=O)[nH]c1=O (stereo not drawn)
endpoint: median tumor weight change, dose: 250.0 mg/kg/injection, schedule: Q01DX001 (ip), vehicle: suspension in saline
  T/C: 71 % of control
endpoint: median tumor weight change, dose: 500.0 mg/kg/injection, schedule: Q01DX001 (ip), vehicle: suspension in saline
  T/C: 69 % of control
endpoint: median tumor weight change, dose: 1000.0 mg/kg/injection, schedule: Q01DX001 (ip), vehicle: suspension in saline
  T/C: 79 % of control
